PubChem BioAssay AID258 (DTP/NCI, 2004)
Several values for one entry are separate records, joined by “and”; a condition that tells them apart may be missing. Equal entries are not always repeated. Toxic doses and inconclusive results are not listed. The calls were made as follows: active = survival T/C of 150% or more; inactive = T/C below 125% in these data.

System: CD2F1 mice, L1210 leukemia sc, survival T/C
Test: NCI In Vivo Anticancer Drug Screen. Data for tumor model L1210 Leukemia (subcutaneous) in CD2F1 (CDF1) mice
Conditions: endpoint: median survival time, higher = longer survival
Summary of the method: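 Compound given to mice bearing transplantable tumor. Survival or tumor size then recorded. Result expressed relative to vehicle-dosed control group as T/C.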

Measured: T/C

CN(Cc1cnc2nc(N)nc(N)c2n1)c1c(Cl)cc(C(=O)NC(CCC(=O)O)C(=O)O)cc1Cl (configuration not stated)
inactive: dose: 75.0 mg/kg/injection, schedule: Q03DX Z (oral), vehicle: other 100 % of control | dose: 75.0 mg/kg/injection, schedule: Q#A X Z (oral), vehicle: other 122 % of control | dose: 108.0 mg/kg/injection, schedule: Q## X Z (oral), vehicle: other 110 % of control | dose: 108.0 mg/kg/injection, schedule: Q## X Z (sc), vehicle: other 115 % of control | dose: 125.0 mg/kg/injection, schedule: Q03DX Z (oral), vehicle: other 100 % of control | dose: 180.0 mg/kg/injection, schedule: Q## X Z (oral), vehicle: other 115 % of control | dose: 180.0 mg/kg/injection, schedule: Q## X Z (sc), vehicle: other 115 % of control | dose: 208.0 mg/kg/injection, schedule: Q03DX Z (oral), vehicle: other 113 % of control | dose: 300.0 mg/kg/injection, schedule: Q## X Z (oral), vehicle: other 110 % of control | dose: 300.0 mg/kg/injection, schedule: Q## X Z (sc), vehicle: other 120 % of control | dose: 347.0 mg/kg/injection, schedule: Q03DX Z (oral), vehicle: other 109 % of control | dose: 500.0 mg/kg/injection, schedule: Q## X Z (oral), vehicle: other 115 % of control | dose: 961.0 mg/kg/injection, schedule: Q03DX Z (oral), vehicle: other 122 % of control
active: dose: 5.83 mg/kg/injection, schedule: Q#A X Z (oral), vehicle: other 163 % of control | dose: 8.1 mg/kg/injection, schedule: Q#A X Z (oral), vehicle: other 220 % of control | dose: 8.1 mg/kg/injection, schedule: Q#A X Z (sc), vehicle: other 655 % of control | dose: 9.72 mg/kg/injection, schedule: Q#A X Z (oral), vehicle: other 204 % of control | dose: 9.72 mg/kg/injection, schedule: Q#A X Z (sc), vehicle: other 345 % of control | dose: 13.5 mg/kg/injection, schedule: Q#A X Z (oral), vehicle: other 230 % of control | dose: 13.5 mg/kg/injection, schedule: Q#A X Z (sc), vehicle: other 730 % of control | dose: 16.2 mg/kg/injection, schedule: Q#A X Z (sc), vehicle: other 322 % of control | dose: 22.5 mg/kg/injection, schedule: Q#A X Z (oral), vehicle: other 190 % of control | dose: 22.5 mg/kg/injection, schedule: Q#A X Z (sc), vehicle: other 690 % of control | dose: 25.0 mg/kg/injection, schedule: Q01DX Z (sc), vehicle: other 500 % of control | dose: 27.0 mg/kg/injection, schedule: Q01DX Z (oral), vehicle: other 186 % of control and 215 % of control | dose: 27.0 mg/kg/injection, schedule: Q01DX Z (sc), vehicle: other 331 % of control and 565 % of control and 900 % of control | dose: 27.0 mg/kg/injection, schedule: Q#A X Z (sc), vehicle: other 786 % of control | dose: 28.0 mg/kg/injection, schedule: Q01DX Z (oral), vehicle: other 194 % of control | dose: 37.5 mg/kg/injection, schedule: Q#A X Z (oral), vehicle: other 175 % of control | dose: 37.5 mg/kg/injection, schedule: Q#A X Z (sc), vehicle: other 565 % of control | dose: 45.0 mg/kg/injection, schedule: Q01DX Z (oral), vehicle: other 181 % of control and 210 % of control | dose: 45.0 mg/kg/injection, schedule: Q01DX Z (sc), vehicle: other 363 % of control and 825 % of control | dose: 47.0 mg/kg/injection, schedule: Q01DX Z (oral), vehicle: other 222 % of control | dose: 47.0 mg/kg/injection, schedule: Q01DX Z (sc), vehicle: other 816 % of control | dose: 50.0 mg/kg/injection, schedule: Q01DX Z (sc), vehicle: other 500 % of control | dose: 62.5 mg/kg/injection, schedule: Q#A X Z (sc), vehicle: other 175 % of control | dose: 75.0 mg/kg/injection, schedule: Q01DX Z (oral), vehicle: other 159 % of control and 190 % of control | dose: 75.0 mg/kg/injection, schedule: Q01DX Z (sc), vehicle: other 231 % of control and 554 % of control and 800 % of control | dose: 78.0 mg/kg/injection, schedule: Q01DX Z (oral), vehicle: other 188 % of control | dose: 78.0 mg/kg/injection, schedule: Q01DX Z (sc), vehicle: other 272 % of control | dose: 125.0 mg/kg/injection, schedule: Q01DX Z (oral), vehicle: other 172 % of control and 200 % of control | dose: 125.0 mg/kg/injection, schedule: Q01DX Z (sc), vehicle: other 205 % of control | dose: 125.0 mg/kg/injection, schedule: Q03DX Z (sc), vehicle: other 513 % of control | dose: 130.0 mg/kg/injection, schedule: Q01DX Z (oral), vehicle: other 200 % of control | dose: 130.0 mg/kg/injection, schedule: Q01DX Z (sc), vehicle: other 194 % of control | dose: 208.0 mg/kg/injection, schedule: Q03DX Z (sc), vehicle: other 272 % of control | dose: 216.0 mg/kg/injection, schedule: Q01DX Z (oral), vehicle: other 172 % of control | dose: 216.0 mg/kg/injection, schedule: Q01DX Z (sc), vehicle: other 155 % of control | dose: 250.0 mg/kg/injection, schedule: Q## X Z (sc), vehicle: other 500 % of control | dose: 347.0 mg/kg/injection, schedule: Q03DX Z (sc), vehicle: other 195 % of control | dose: 360.0 mg/kg/injection, schedule: Q01DX Z (oral), vehicle: other 166 % of control | dose: 500.0 mg/kg/injection, schedule: Q## X Z (sc), vehicle: other 370 % of control and 500 % of control | dose: 577.0 mg/kg/injection, schedule: Q03DX Z (oral), vehicle: other 150 % of control | dose: 577.0 mg/kg/injection, schedule: Q03DX Z (sc), vehicle: other 209 % of control | dose: 833.0 mg/kg/injection, schedule: Q## X Z (oral), vehicle: other 155 % of control | dose: 833.0 mg/kg/injection, schedule: Q## X Z (sc), vehicle: other 360 % of control | dose: 961.0 mg/kg/injection, schedule: Q03DX Z (sc), vehicle: other 172 % of control

COc1cccc2c1C(=O)c1c(O)c3c(c(O)c1C2=O)C[C@@](O)(C(=O)CO)C[C@@H]3OC1CC(N)C(O)C(C)O1 (some centres not stated)
inactive: dose: 0.25 mg/kg/injection, schedule: Q01DX009 (ip), vehicle: saline 101 % of control and 98 % of control | dose: 0.25 mg/kg/injection, schedule: Q01DX009 (sc), vehicle: saline 98 % of control | dose: 0.5 mg/kg/injection, schedule: Q01DX009 (ip), vehicle: saline 103 % of control and 107 % of control and 98 % of control | dose: 0.5 mg/kg/injection, schedule: Q01DX009 (sc), vehicle: saline 101 % of control | dose: 1.0 mg/kg/injection, schedule: Q01DX009 (ip), vehicle: saline 100 % of control and 106 % of control and 123 % of control | dose: 1.0 mg/kg/injection, schedule: Q01DX009 (sc), vehicle: saline 110 % of control | dose: 2.0 mg/kg/injection, schedule: Q01DX009 (ip), vehicle: saline 111 % of control and 115 % of control and 123 % of control | dose: 2.0 mg/kg/injection, schedule: Q01DX009 (sc), vehicle: saline 117 % of control and 120 % of control | dose: 2.5 mg/kg/injection, schedule: Q01DX009 (sc), vehicle: saline 114 % of control | dose: 3.0 mg/kg/injection, schedule: Q01DX009 (sc), vehicle: saline 116 % of control | dose: 3.5 mg/kg/injection, schedule: Q01DX009 (sc), vehicle: saline 120 % of control | dose: 4.0 mg/kg/injection, schedule: Q01DX009 (ip), vehicle: saline 110 % of control and 92 % of control and 97 % of control | dose: 5.0 mg/kg/injection, schedule: Q01DX009 (sc), vehicle: saline 116 % of control | dose: 6.0 mg/kg/injection, schedule: Q01DX009 (sc), vehicle: saline 102 % of control | dose: 8.0 mg/kg/injection, schedule: Q01DX009 (sc), vehicle: saline 113 % of control and 89 % of control
